Measurements: patent US7927411B2, “Compound, ink, process and use” (Fujifilm Imaging Colorants Limited, priority 2007, dated 2011)

Key:
[1] = Solubility of dye in water; format: physicochemical
[2] = Physical form: liquid crystalline behaviour in aqueous solution; format: physicochemical; conditions: for Dye (1) at a dye concentration of above about 25% by weight
Description: This is anticipated to correspond to enhanced stability against precipitation and reduced dye degradation for concentrated solutions containing the compounds used in the present invention. The difference in liquid crystalline behaviour is surprising given the structural similarity of Dye (1) and Comparative Dye (1).

| Compound | solubility in water [1] | solubility in water relative to Comparative Dye (1) ([1]; ratio to Comparative Dye (1)) | liquid crystalline behaviour [2] |
| --- | --- | --- | --- |
| O=C(O)c1cc(/N=N/c2ccc(Nc3nc(Nc4ccc(/N=N/c5cc(S(=O)(=O)O)c6cccc(S(=O)(=O)O)c6c5)cc4)nc(N(CCO)CCO)n3)cc2)cc(C(=O)O)c1 [Dye (1)] | 30 % of dye by weight | twice | exhibited liquid crystalline characteristics |
| O=C(O)c1cc(/N=N/c2ccc(Nc3nc(NCCO)nc(Nc4ccc(/N=N/c5cc(S(=O)(=O)O)c6cccc(S(=O)(=O)O)c6c5)cc4)n3)cc2)cc(C(=O)O)c1 [Comparative Dye (1), reference compound] | 15 % of dye by weight |  | no liquid crystalline behaviour |
